Experimental data published in ChEMBL document CHEMBL1129489.

Legend:
[1] = biological target: D(2) dopamine receptor (Homo sapiens) (UniProt P14416)
[2] = biological target: D(1A) dopamine receptor (Homo sapiens) (UniProt P21728)
[3] = biological target: D(1A) dopamine receptor (Rattus norvegicus) (UniProt P18901); experiment: (§1) Low-affinity agonist dissociation constant against striatal Dopamine receptor D1A; assay type: functional
[4] = biological target: D(2) dopamine receptor (Rattus norvegicus) (UniProt P61169)
Sequence of D(2) dopamine receptor (Rattus norvegicus) (P61169 whole entry): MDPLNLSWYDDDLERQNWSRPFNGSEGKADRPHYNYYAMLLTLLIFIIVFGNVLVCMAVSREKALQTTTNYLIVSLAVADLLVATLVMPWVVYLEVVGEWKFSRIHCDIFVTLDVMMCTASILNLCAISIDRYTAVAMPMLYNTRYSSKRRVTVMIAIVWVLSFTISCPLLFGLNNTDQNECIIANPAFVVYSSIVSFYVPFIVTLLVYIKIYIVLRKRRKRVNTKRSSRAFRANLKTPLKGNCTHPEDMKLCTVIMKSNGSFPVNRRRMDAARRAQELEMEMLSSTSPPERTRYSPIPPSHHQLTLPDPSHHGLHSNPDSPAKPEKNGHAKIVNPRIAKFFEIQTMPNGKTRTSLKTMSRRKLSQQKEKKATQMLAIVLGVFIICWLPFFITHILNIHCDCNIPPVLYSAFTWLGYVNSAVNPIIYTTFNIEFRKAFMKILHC

[5] = biological target: D(1A) dopamine receptor (Homo sapiens) (UniProt P21728); settings: COS-7
[6] = biological target: D(1A) dopamine receptor (Homo sapiens) (UniProt P21728); experiment: as §1; assay type: functional
[7] = biological target: D(1A) dopamine receptor (Homo sapiens) (UniProt P21728); remark: listed apart in the source
[8] = biological target: D(1A) dopamine receptor (Homo sapiens) (UniProt P21728); settings: COS-7; remark: listed apart in the source

Sequence of D(1A) dopamine receptor (Homo sapiens) (P21728 whole entry): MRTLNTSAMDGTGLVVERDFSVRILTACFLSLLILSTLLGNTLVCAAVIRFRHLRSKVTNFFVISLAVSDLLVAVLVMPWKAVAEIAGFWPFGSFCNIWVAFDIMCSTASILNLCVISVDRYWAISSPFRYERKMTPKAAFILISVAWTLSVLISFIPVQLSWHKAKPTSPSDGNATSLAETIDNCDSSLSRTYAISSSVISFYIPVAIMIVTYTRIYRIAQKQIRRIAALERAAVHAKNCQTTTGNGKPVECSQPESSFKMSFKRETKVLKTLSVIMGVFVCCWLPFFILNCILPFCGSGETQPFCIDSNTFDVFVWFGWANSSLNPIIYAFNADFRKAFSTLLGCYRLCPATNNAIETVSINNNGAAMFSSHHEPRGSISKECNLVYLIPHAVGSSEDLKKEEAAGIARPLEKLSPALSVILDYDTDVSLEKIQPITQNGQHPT
Sequence of D(1A) dopamine receptor (Rattus norvegicus) (P18901 whole entry): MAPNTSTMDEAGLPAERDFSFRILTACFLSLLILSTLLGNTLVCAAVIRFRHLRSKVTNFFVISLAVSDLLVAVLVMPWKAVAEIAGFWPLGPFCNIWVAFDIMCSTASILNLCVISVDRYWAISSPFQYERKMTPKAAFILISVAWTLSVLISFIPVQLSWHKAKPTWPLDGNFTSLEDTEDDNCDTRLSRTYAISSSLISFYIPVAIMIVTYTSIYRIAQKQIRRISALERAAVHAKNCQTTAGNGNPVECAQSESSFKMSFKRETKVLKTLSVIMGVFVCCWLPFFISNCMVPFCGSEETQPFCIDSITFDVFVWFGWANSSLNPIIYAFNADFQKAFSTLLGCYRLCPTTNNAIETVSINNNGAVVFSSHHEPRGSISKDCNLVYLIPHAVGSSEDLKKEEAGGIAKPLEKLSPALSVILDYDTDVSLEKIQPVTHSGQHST
Sequence of D(2) dopamine receptor (Homo sapiens) (P14416 whole entry): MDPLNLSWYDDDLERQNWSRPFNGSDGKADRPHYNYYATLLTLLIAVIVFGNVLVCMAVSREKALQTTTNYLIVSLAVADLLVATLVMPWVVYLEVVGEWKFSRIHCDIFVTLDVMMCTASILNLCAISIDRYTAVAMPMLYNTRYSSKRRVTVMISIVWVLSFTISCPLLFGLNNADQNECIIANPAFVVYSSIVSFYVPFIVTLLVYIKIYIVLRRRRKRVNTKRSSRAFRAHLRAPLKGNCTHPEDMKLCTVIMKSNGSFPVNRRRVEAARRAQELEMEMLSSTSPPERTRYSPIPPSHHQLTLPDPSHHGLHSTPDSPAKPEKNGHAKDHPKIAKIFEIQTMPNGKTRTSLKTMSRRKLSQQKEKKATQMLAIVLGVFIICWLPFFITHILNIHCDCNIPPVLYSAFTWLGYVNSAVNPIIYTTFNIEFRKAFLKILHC

| SMILES | KL [3] | KL [4] | further results |
| --- | --- | --- | --- |
| CN1CCc2cccc3c2[C@H]1Cc1ccc(O)c(O)c1-3 | – | – | KL [1]: 127 nM; KL [2]: 206 nM |
| Oc1cc2c(cc1O)[C@@H](c1ccccc1)CNCC2 | 381 nM | – | – |
| Oc1ccc(C2CNCCc3c2cc(O)c(O)c3Cl)cc1 (stereo unspecified) | 21 nM | 1 µM | – |
| CNC[C@H](O)c1ccc(O)c(O)c1 | 980 nM | 128 µM | – |
| NCCc1c[nH]c2ccc(O)cc12 | 6540 nM | 183 µM | – |
| CN(C)C1CCc2cc(O)c(O)cc2C1 (stereo unspecified) | 734 nM | 0.463 µM | – |
| NCCc1ccc(O)c(O)c1 | 580 nM | – | – |
| NC[C@H](O)c1ccc(O)c(O)c1 | 4140 nM | 126 µM | Log 1/Kd [5]: 4.69 |
| CCCN1CCc2cccc3c2[C@@H]1Cc1ccc(O)c(O)c1-3 | – | – | KL [6]: 5.2 µM |
| Oc1ccc([C@@H]2CNCCc3c2cc(O)c(O)c3Cl)cc1 | 1340 nM | – | – |
| C=CCN1CCc2c(cc(O)c(O)c2Cl)[C@@H](c2ccccc2)C1 | – | – | KL [7]: 83 nM; Log 1/KL [8]: -1.92 |
| CCCN1CCc2cccc3c2[C@H]1Cc1ccc(O)c(O)c1-3 | 625 nM | 0.023 µM | – |
